In the supplement of paper PMC4862054 one finds normalised viability data, which are given here for nine molecules.

“And” between values parts separate entries of the source, which are not always exact repeats. Identical values can stand only once.

Holding throughout (assay): normalised viability (% of control), CellTiter-Blue; higher = more viable cells (about 100 = DMSO control)
Common to all, as to settings: incubation time: 72 h

Assay [1] has as its system BT-474. In a few lines: (§1)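 Compound dissolved in 5 µl medium was pre-loaded into 384-well plates, and breast cancer cell lines in 20 µl suspension were seeded on top and incubated 72 h. After adding 2.5 µl CellTiter-Blue reagent for 2 h at 37 °C, fluorescence was read at 560/590 nm. Plates were normalised to vehicle (100) and a positive kill control (0), with Z'-factor quality control. Each value is normalised viability at a single listed concentration from the series.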

Assay [2] has as its system CAL-120. In short, it runs like this: as §1
The subject of assay [3] is CAL-148. In short, it runs like this:
as §1

Assay [4] relates to CAL-51. In short, it runs like this: as §1
The subject of assay [5] is CAL-85-1. In a few lines:
as §1

For assay [6], the system named is DU-4475. In a few lines: as §1
Assay [7] concerns HCC1599. In a few lines: as §1
Assay [8] has as its system HCC1937. In short, it runs like this: as §1
Assay [9] relates to HDQ-P1. In a few lines:
as §1

Assay [10] relates to Hs578T. In short, it runs like this: as §1
The test system of assay [11] is MDA-MB-231. In short, it runs like this: as §1
In assay [12] the test system is MDA-MB-436. In short, it runs like this: as §1
The subject of assay [13] is MDA-MB-453. In a few lines: as §1
In assay [14] the test system is SK-BR-3. In a few lines: as §1

On to `C[C@]12O[C@H](C[C@]1(O)CO)n1c3ccccc3c3c4c(c5c6ccccc6n2c5c31)CNC4=O` [Lestaurtinib], for which the normalised viability stood at 127% in assay [1] (10 nM); 103% in [2] (10 nM); 101% in assay [3] (1 nM); 115% in [4] (1 nM); 99.7% in assay [5] (1 nM); 109% in assay [6] (1 nM). Further, the normalised viability in assay [7] (10 nM) worked out at 102%; in [8] (10 nM) it was 79.5%; in [9] (1 nM), 113%; in assay [10] (10 nM), 83%; in assay [11] (10 nM), 110%; in assay [12] (10 nM) it was 103%. Moreover, the normalised viability in assay [13] (1 nM) was determined as 98.7%; in assay [14] (10 nM) it was 91.3%.
`O=C1c2c(O)ccc(O)c2C(=O)c2c(NCCNCCO)ccc(NCCNCCO)c21` [Mitoxantrone]: the normalised viability in assay [1] (10 nM) was found to be 98.2%; in assay [2] (10 nM), 67.4%; in assay [3] (1 nM) it was 94.3%; in assay [4] (1 nM) it was 104%; in assay [5] (1 nM), 95.1%; in assay [6] (1 nM) it was 102%. Further, the normalised viability came to 108% in assay [7] (10 nM); 46.6% in assay [8] (10 nM); 95% in [9] (1 nM); 71.8% in assay [10] (10 nM); 72.5% in assay [11] (10 nM); 99.6% in assay [12] (10 nM). The normalised viability in assay [13] (1 nM) is 84.8%; in assay [14] (10 nM), 75.6%.
Consider `Nc1ccccc1NC(=O)c1ccc(CNc2nccc(-c3cccnc3)n2)cc1` [Mocetinostat], for which the normalised viability in assay [1] (100 nM) is 95.1%; in assay [2] (100 nM), 53.6%; in assay [3] (10 nM) it was 111%; in [4] (10 nM), 98.2%; in assay [5] (10 nM), 91.2%; in assay [6] (10 nM), 91%. The normalised viability in [7] (100 nM) turned out to be 86.9%; in assay [8] (100 nM), 79.2%; in assay [9] (10 nM) it was 117%; in [10] (100 nM), 80.8%; in assay [11] (100 nM), 84.3%; in assay [12] (100 nM) it was 81.2%. In addition, the figures for the normalised viability in assay [13] (10 nM) and in assay [14] (100 nM) were 94.2% and 83.9%, respectively.
`Cc1ccc(Nc2nccc(N(C)c3ccc4c(C)n(C)nc4c3)n2)cc1S(N)(=O)=O` [Pazopanib]: the normalised viability is 99.7% in assay [1] (100 nM); 81.6% in assay [2] (100 nM); 88.3% in [3] (10 nM); 104% in assay [4] (10 nM); 95.6% in [5] (10 nM); 103% in assay [6] (10 nM). Also, the normalised viability in assay [7] (100 nM) came out at 108%; in assay [8] (100 nM), 94%; in [9] (10 nM), 93.8%; in assay [10] (100 nM), 86.5%; in [11] (100 nM), 94.3%; in assay [12] (100 nM), 88.3%. The normalised viability in [13] (10 nM) turned out to be 100%; in assay [14] (100 nM), 78.7%.
Turning to `O=C(CCBr)N1CCN(C(=O)CCBr)CC1` [Pipobroman], the normalised viability turned out to be 119% in [1] (100 nM); 96% in [2] (100 nM); 100% in [3] (10 nM); 110% in [4] (10 nM); 110% in assay [5] (10 nM); 103% in assay [6] (10 nM). For the same molecule, the normalised viability in [7] (100 nM) was found to be 93.4%; in [8] (100 nM), 87.9%; in [9] (10 nM), 99.4%; in [10] (100 nM) it was 91.4%; in assay [11] (100 nM), 94.7%; in [12] (100 nM), 93%. Moreover, the normalised viability in assay [13] (10 nM) came to 102%; in [14] (100 nM) it was 108%.
Regarding `c1cc(CN2CCCNCCNCCCNCC2)ccc1CN1CCCNCCNCCCNCC1` [Plerixafor], the normalised viability in assay [1] (25 nM) is 108%; in assay [2] (25 nM), 80.1%; in [3] (2.5 nM), 92.3%; in [4] (2.5 nM) it was 100%; in assay [5] (2.5 nM), 96.9%; in assay [6] (2.5 nM) it was 93.1%. For the same molecule, the normalised viability was determined as 101% in assay [7] (25 nM); 102% in assay [8] (25 nM); 112% in [9] (2.5 nM); 93.4% in [10] (25 nM); 93.9% in assay [11] (25 nM); 95.7% in [12] (25 nM). For the same molecule, the normalised viability worked out at 106% in assay [13] (2.5 nM) and 84.3% in assay [14] (25 nM).
As for `C[C@]12C=CC(=O)C=C1CC[C@@H]1[C@@H]2[C@@H](O)C[C@@]2(C)[C@H]1CC[C@]2(O)C(=O)CO` [Prednisolone], the normalised viability in assay [1] (100 nM) worked out at 102%; in assay [2] (100 nM), 79.9%; in assay [3] (10 nM), 111%; in assay [4] (10 nM), 98.4%; in assay [5] (10 nM) it was 109%; in assay [6] (10 nM) it was 101%. In addition, the normalised viability amounted to 102% in [7] (100 nM); 94% in [8] (100 nM); 108% in [9] (10 nM); 81.3% in [10] (100 nM); 114% in assay [11] (100 nM); 96.6% in assay [12] (100 nM). The normalised viability in assay [13] (10 nM) came out at 105%; in assay [14] (100 nM), 60.8%.
`CCN(CC)CCNC(=O)c1c(C)[nH]c(/C=C2\C(=O)Nc3ccc(F)cc32)c1C` [Sunitinib]: the normalised viability in assay [1] (10 nM) is 102% and 99.1%; in assay [2] (10 nM), 91.8% and 108%; in assay [3] (1 nM), 96.4% and 97.8%; in assay [4] (1 nM) it was 110% and 90.5%; in [5] (1 nM), 95.3% and 104%; in assay [6] (1 nM), 104% and 92%. Besides, the normalised viability in [7] (10 nM) is 125% and 105%; in [8] (10 nM), 98.6% and 91%; in [9] (1 nM), 103% and 99.8%; in assay [10] (10 nM) it was 96.2% and 90.4%; in assay [11] (10 nM), 84.8% and 87.2%; in [12] (10 nM), 102% and 107%. In addition, the normalised viability in assay [13] (1 nM) is 89.4% and 98.1%; in assay [14] (10 nM) it was 85.7% and 80.3%.
As for `CC[C@@]1(O)C(=O)OCc2c1cc1n(c2=O)Cc2cc3c(CN(C)C)c(O)ccc3nc2-1` [Topotecan], the normalised viability in [1] (10 nM) was 121%; in assay [2] (10 nM), 76.4%; in [3] (1 nM), 96.4%; in [4] (1 nM), 96.5%; in assay [5] (1 nM), 91.2%; in [6] (1 nM) it was 92.6%. Besides, the normalised viability in assay [7] (10 nM) was determined as 109%; in assay [8] (10 nM) it was 81.3%; in assay [9] (1 nM), 114%; in assay [10] (10 nM) it was 101%; in assay [11] (10 nM) it was 90.1%; in assay [12] (10 nM), 107%. Also, the figures for the normalised viability in assay [13] (1 nM) and in [14] (10 nM) were 101% and 85.5%, respectively.
